Test results from US20160222014A1, “COMPOUNDS FOR REGULATING FAK AND/OR SRC PATHWAYS” (ASANA BIOSCIENCES, LLC, priority 2013, published 2016).

Target: T1, recombinant human FAK1 (Homo sapiens, UniProt Q05397)
T1 construct: fused on or other part: N-terminal 6xHis tag
Assay: FAK1 HTRF assay
Assay type: biochemical
Protocol: Active FAK1 was prepared for use in the Homogeneous Time-Resolved Fluorescence (HTRF) assay. Briefly, N-terminal 6 His tagged recombinant human FAK1, from residue 692-end (GenBank accession no. L13616) was expressed by Bacculovirus in sf9 cells. […] A 1.6 mg/mL (45 μM) stock was used in the HTRF assay at a final concentration of 10 nM.
Gastrin precursor (tyr87) biotinylated peptide which contains the residues surrounding tyrosine 87 (EEAY*GWM) of gastrin precursor was obtained (Cell Signaling Tech, Item no. 1310, Lot 7). The peptide was provided at a stock concentration of 6 μM, and used a final concentration of 0.5 μM in the HTRF assay.
10 mM stock in 100 μL Enzyme assay buffer pH7.4 was prepared freshly and used at a final concentration of 10 μM in the assay.
Powders were dissolved in 100% DMSO to a final stock concentration of 10 mM. The volume needed (in μL) to add for 10 mM=mg powder is 10^5/MW of compound. The final compound concentration in the assay plate started at 10 μM.
Pfizer FAK inhibitor PF-562271 (N-methyl-N-(3-(((2-((2-oxoindolin-5-yl)amino)-5-(trifluoromethyl)pyrimidin-4-yl)amino)methyl)pyridin-2-yl)methanesulfonamide) was prepared as per the reported procedure from US Patent Publication No. 2005/256145A1.
Streptavidin-Allophycocyanin was obtained (Prozyme, Cat. No. PJ25S. SA-APC was provided at a stock concentration of 2.06 mg/mL, where APC concentration was 11.6 μM and the streptavidin concentration was 15.5 μM. SA-APC was used at a final concentration of 12 nM in the assay (based on streptavidin concentration).
This reagent was obtained from Perkin ElmerAD0068. Europium-W1024-PT-66 Anti Phospho Tyrosine Ab is a monoclonal IgG1 that recognizes phospho tyrosine peptide. 100 μg/mL stock was used at a final concentration of 0.1 nM in the assay.
• 1. The compound dilutions were made by TECAN liquid handler as per the scheme in FIG. 1. • 2. 16 μL of diluted compound was added to each well of the assay plate using TECAN liquid handler. • 3. 20 μL of substrate mix (biotinylated gastrin precursor) was added into each well of the assay plate manually. • 4. 10 μL of enzyme mix (FAK1) was added to each well except mins. • 5. The plate was incubated at rt for 45 min with shaking. • 6. The HTRF mix was prepared and 75 μL was added to the HTRF plate. • 7. After the incubation was over, 10 μL of the mixture was transferred to the HTRF assay plate and incubated for 45 min at rt with shaking. • 8. The readings were taken in Pherastar in HTRF mode (ext 337 nm, em 665 & 620 nm) • 9. The results were analyzed using Graphpad Prism® software after calculation the z factor signal window and % inhibition. • 10. The IC50 was calculated.

T1 sequence (Q05397 422-680 limits assumed): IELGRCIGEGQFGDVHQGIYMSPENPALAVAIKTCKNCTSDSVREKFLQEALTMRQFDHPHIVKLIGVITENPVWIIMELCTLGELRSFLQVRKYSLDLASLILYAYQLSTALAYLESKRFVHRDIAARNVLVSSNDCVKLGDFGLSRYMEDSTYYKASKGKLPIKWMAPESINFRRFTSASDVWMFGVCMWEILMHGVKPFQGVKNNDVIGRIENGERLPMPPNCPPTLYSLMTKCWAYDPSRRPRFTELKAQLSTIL

Structure (SMILES)	IC50
CN1CCC(Oc2ccc(Nc3ncc4ccn(Cc5ccccc5N(C)S(C)(=O)=O)c4n3)cc2)CC1 [Example 531]	< 20 nM
CN(c1ccccc1Cn1ccc2cnc(Nc3ccc(N4CCC(CO)CC4)cc3)nc21)S(C)(=O)=O [Example 566]	< 20 nM
CN(C)C1CCN(c2ccc(Nc3ncc4ccn(Cc5ccccc5N(C)S(C)(=O)=O)c4n3)cc2)C1 (stereo not shown) [Example 571]	< 20 nM
CN(c1ccccc1Cn1ccc2cnc(Nc3ccc(OCCN4CCNCC4)cc3)nc21)S(C)(=O)=O [Example 572]	< 20 nM
CN(C)C1CN(c2ccc(Nc3ncc4ccn(Cc5ccccc5N(C)S(C)(=O)=O)c4n3)cc2)C1 [Example 588]	< 20 nM
CN(C)C1CCN(c2ccc(Nc3ncc4ccn(Cc5ccccc5N(C)S(C)(=O)=O)c4n3)cc2F)C1 (stereo not shown) [Example 590]	< 20 nM
CN(c1ccccc1Cn1ccc2cnc(Nc3ccc(N4CCC(C)(O)CC4)cc3)nc21)S(C)(=O)=O [Example 638]	< 20 nM
C[C@H]1CN(C(=O)c2ccc(Nc3ncc4ccn(Cc5cccnc5N(C)S(C)(=O)=O)c4n3)cc2)CCN1 [Example 682]	> 1000 nM
COc1ccc(N(C)S(C)(=O)=O)c(Cn2ccc3cnc(Nc4ccc(N5CCNCC5)c(F)c4)nc32)c1 [Example 700]	< 20 nM
CN1CCC(NC(=O)c2ccc(Nc3ncc4c(n3)N(S(=O)(=O)c3cccc5cccnc35)CC4(C)C)cc2)CC1 [Example 702]	< 20 nM
COc1ccc(N(C)S(C)(=O)=O)c(Cn2ccc3cnc(Nc4ccc(N5CCC(N(C)C)CC5)c(OC)c4)nc32)c1 [Example 703]	< 20 nM
CCC1CN(c2ccc(Nc3ncc4ccn(Cc5cc(OC)ccc5N(C)S(C)(=O)=O)c4n3)cc2)CCN1 (stereo not shown) [Example 704]	< 20 nM
COc1ccc(N(C)S(C)(=O)=O)c(Cn2ccc3cnc(Nc4ccc(N5CCC(N(C)C)CC5)c(C)c4)nc32)c1 [Example 705]	< 20 nM
C[C@@H]1CN(c2ccc(Nc3ncc4ccn(Cc5ccccc5N(C)S(C)(=O)=O)c4n3)cc2C2CC2)CCN1 [Example 710]	< 20 nM
Cc1ccc(N(C)S(C)(=O)=O)c(Cn2ccc3cnc(Nc4ccc(N5CCC(N(C)C)CC5)cc4)nc32)c1 [Example 761]	< 20 nM
Cc1cn(S(=O)(=O)c2cccc3cccnc23)c2nc(Nc3ccc(N4CCNCC4)cc3)ncc12 [Example 769]	< 20 nM
Cc1cc(Nc2ncc3ccn(Cc4cc(F)ccc4N(C)S(C)(=O)=O)c3n2)ccc1N1CCC(N(C)C)CC1 [Example 794]	< 20 nM
CN(C)C1CCN(c2ccc(Nc3ncc4ccn(Cc5cc(Cl)ccc5N(C)S(C)(=O)=O)c4n3)cc2)CC1 [Example 796]	< 20 nM
Cc1ccc(N(C)S(C)(=O)=O)c(Cn2ccc3cnc(Nc4ccc(C5CCNCC5)c(C)c4)nc32)c1 [Example 807]	< 20 nM
Cc1ccc(N(C)S(C)(=O)=O)c(Cn2ccc3cnc(Nc4ccc(N5CCN[C@@H](C)C5)c(F)c4)nc32)c1 [Example 809]	< 20 nM
Cc1ccc(N(C)S(C)(=O)=O)c(Cn2ccc3cnc(Nc4ccc(N5CCNCC5)c(F)c4)nc32)c1 [Example 941]	< 20 nM
COc1cc(Nc2ncc3ccn(Cc4cc(C)ccc4N(C)S(C)(=O)=O)c3n2)ccc1N1CCNCC1 [Example 942]	< 20 nM
Cc1ccc(N(C)S(C)(=O)=O)c(Cn2ccc3cnc(Nc4ccc(C5CCC(N(C)C)CC5)cc4)nc32)c1 (stereo not shown) [Example 980]	< 20 nM
Cc1cnc(N(C)S(C)(=O)=O)c(Cn2ccc3cnc(Nc4ccc(N5CCC(N(C)C)CC5)c(C)c4)nc32)c1 [Example 981]	< 20 nM

More lines, now with the values ahead:

IC50	Structure (SMILES)
< 20 nM	COc1ccc(N(C)S(C)(=O)=O)c(Cn2ccc3cnc(Nc4ccc(N5CCNCC5)cc4)nc32)c1 [Example 661]
< 20 nM	CNC1CCN(c2ccc(Nc3ncc4ccn(Cc5cc(OC)ccc5N(C)S(C)(=O)=O)c4n3)cc2)CC1 [Example 709]
< 20 nM	CN(c1ccc(C#N)cc1Cn1ccc2cnc(Nc3ccc(N4CCNCC4)cc3)nc21)S(C)(=O)=O [Example 715]
< 20 nM	CN(c1ccc(OC(F)F)cc1Cn1ccc2cnc(Nc3ccc(N4CCNCC4)cc3)nc21)S(C)(=O)=O [Example 717]
< 20 nM	Cc1ccc(N(C)S(C)(=O)=O)c(Cn2ccc3cnc(Nc4ccc(N5CCNCC5)cc4)nc32)c1 [Example 759, N-methyl-N-(4-methyl-2-((2-((4-(piperazin-1-yl)phenyl)amino)-7H-pyrrolo[2,3-d]pyrimidin-7-yl)methyl)phenyl)methanesulfonamide]
< 20 nM	Cc1ccc(N(C)S(C)(=O)=O)c(Cn2ccc3cnc(Nc4ccc(N5CCN[C@@H](C)C5)cc4)nc32)c1 [Example 766]
< 20 nM	CN(C)C1CCN(c2ccc(Nc3ncc4ccn(Cc5cc(F)ccc5N(C)S(C)(=O)=O)c4n3)cc2)CC1 [Example 778]
< 20 nM	Cc1cc(Nc2ncc3ccn(Cc4cc(F)ccc4N(C)S(C)(=O)=O)c3n2)ccc1C1CCNCC1 [Example 782]
< 20 nM	Cc1ccc(N(C)S(C)(=O)=O)c(Cn2ccc3cnc(Nc4ccc(C5CCNCC5)cc4)nc32)c1 [Example 789]
< 20 nM	CN(c1ccc(F)cc1Cn1ccc2cnc(Nc3ccc4c(c3)CC(=O)N4)nc21)S(C)(=O)=O [Example 792]
< 20 nM	C[C@@H]1CN(c2ccc(Nc3ncc4ccn(Cc5cc(F)ccc5N(C)S(C)(=O)=O)c4n3)cc2)CCN1 [Example 793]
< 20 nM	CN(c1ccc(F)cc1Cn1ccc2cnc(Nc3ccc(N4CCC(N)CC4)cc3)nc21)S(C)(=O)=O [Example 799]
< 20 nM	CN(c1ccc(F)cc1Cn1ccc2cnc(Nc3ccc(N4CCCC(N)C4)cc3)nc21)S(C)(=O)=O (stereo not shown) [Example 800]
< 20 nM	COc1cc(Nc2ncc3ccn(Cc4cc(F)ccc4N(C)S(C)(=O)=O)c3n2)ccc1N1CCNCC1 [Example 801]
< 20 nM	CN(c1ccc(F)cc1Cn1ccc2cnc(Nc3ccc(N4CCNCC4)c(F)c3)nc21)S(C)(=O)=O [Example 802]
< 20 nM	CN(c1ccc(F)cc1Cn1ccc2cnc(Nc3ccc(N4CCNCC4)cc3)nc21)S(C)(=O)=O [Example 805]
< 20 nM	CN(C)C1CCC(c2ccc(Nc3ncc4ccn(Cc5cc(F)ccc5N(C)S(C)(=O)=O)c4n3)cc2)CC1 (stereo not shown) [Example 806]
< 20 nM	C[C@H]1CN(c2ccc(Nc3ncc4ccn(Cc5cc(C(F)(F)F)ccc5N(C)S(C)(=O)=O)c4n3)cc2)CCN1 [Example 810]
< 20 nM	CN(c1ccc(C(F)(F)F)cc1Cn1ccc2cnc(Nc3ccc(N4CCNCC4)cc3)nc21)S(C)(=O)=O [Example 892]
< 20 nM	C[C@H]1CN(c2ccc(Nc3ncc4ccn(Cc5cc(Cl)ccc5N(C)S(C)(=O)=O)c4n3)cc2)CCN1 [Example 899]
< 20 nM	CN(c1ccc(F)cc1Cn1ccc2cnc(Nc3ccc(N4CCN(CCO)CC4)cc3)nc21)S(C)(=O)=O [Example 920]
< 20 nM	Cc1ccc(N(C)S(C)(=O)=O)c(Cn2ccc3cnc(Nc4ccc(N5CCC(N)CC5)cc4)nc32)c1 [Example 977]
< 20 nM	Cc1ccc(N(C)S(C)(=O)=O)c(Cn2ccc3cnc(Nc4ccc(N5CCCC(N)C5)cc4)nc32)c1 (stereo not shown) [Example 978]
< 20 nM	CNC(=O)c1ccc(Nc2ncc3ccn(Cc4cc(F)ccc4N(C)S(C)(=O)=O)c3n2)cc1 [Example 983]
< 20 nM	CNC(=O)c1ccc(Nc2ncc3ccn(Cc4cc(C)ccc4N(C)S(C)(=O)=O)c3n2)cc1 [Example 986]
